{"source": "patent US12097213B2", "about": "“Sequential treatment of cancers using 6-thio-dG, checkpoint inhibitors and radiation therapy” (The Board of Regents of the University of Texas System, priority 2020, dated 2024)", "test_system": "HCT116 tumor cells", "assay": "HCT116 tumor model in NSG-SGM3 and humanized NSG-SGM3 mice", "format": "in vivo, mouse", "settings": "three doses, 3 mg/kg", "description": "Humanized mouse tumor models. Humanized mouse reconstitution was previously described (Qiao et al., 2019). Briefly, four-week-old NSG-SGM3 female mice were irradiated with 100 cGy (X-ray irradiation with X-RAD 320 irradiator) one day prior to human CD34+ cells transfer. Cord blood was obtained from UT Southwestern Parkland Hospital. Human CD34+ cells were purified from cord blood by density gradient centrifugation (Ficoll® Paque Plus, GE healthcare) followed by positive immunomagnetic selection with anti-human CD34 microbeads (Stemcell). 1×10^5 CD34+ cells were intravenously injected into each recipient mouse. 12 weeks after engraftment, humanized mice with over 50% human CD45+ cells reconstitution and age and sex matched non-humanized mice were inoculated with 1×10^6 HCT116 tumor cells subcutaneously on the right flank. 3 mg/kg 6-thio-dG was intraperitoneally given on days 7, 8 and 9. Tumor volumes were measured twice a week. Experiments were performed in compliance with UTSW Human Investigation Committee protocol and UTSW Institutional Animal Care and Use Committee.", "data": [{"smiles": "Nc1nc2c(ncn2[C@H]2C[C@H](O)[C@@H](CO)O2)c(=S)[nH]1", "note": "[6-thio-dG, 6-thio-2′-deoxyguanosine]", "values": [{"measurement": "tumor growth", "setting": "humanized NSG-SGM3 mice", "result": "significantly delayed tumor growth"}, {"measurement": "tumor growth", "setting": "immunocompromised NSG-SGM3 mice", "result": "did not have significant difference"}]}]}
